Literature values, collected in patent publication US6846837B2, “Topical administration of basic antifungal compositions to treat fungal infections of the nails” (priority 2002, dated 2005).
Each block holds one compound with its values, some of them ahead of it.

Assays:
[1] = forms Ca(OH)2
[2] = not given; remark: listed apart in the source
[3] = test system: onychomycosis; conditions: standard oral treatment

Structure (SMILES): [O]=[Ca] [Calcium oxide]
solubility in water [1]: Soluble in water, Form Ca(OH)2

Structure (SMILES): CNC [Dimethylamine]
pKa: 10.73

pKa: pKa = 10.6
Structure (SMILES): CC(C)CCN [Isopentylamine]

pH of Aqueous Solution, in words (alkalinity) [2]: Aqueous solution is slightly alkaline
Structure (SMILES): O=P([O-])([O-])O.[K+].[K+] [Potassium phosphate, dibasic]

pH of Aqueous Solution, in words (alkalinity) [2]: Strongly alkaline
Structure (SMILES): O=B[O-].[Na+] [Sodium metaborate]

Structure (SMILES): CN(C)C [Trimethylamine]
pKa: 9.81

Structure (SMILES): CN(C/C=C/C#CC(C)(C)C)Cc1cccc2ccccc12 [terbinafine]
disease-free nails, share of cases [3]: 35-50%
